In patent publication US20190076406A1, “METHODS AND COMPOSITIONS FOR TREATING CONDITIONS ASSOCIATED WITH ANGIOGENESIS USING A VASCULAR ADHESION PROTEIN-1 (VAP-1) INHIBITOR” (MASSACHUSETTS EYE & EAR INFIRMARY, priority 2007, published 2019):

Legend:
[1] = tested on: IL-1β-induced corneal angiogenesis in BALB/c mice; experiment: Leukocyte infiltration in IL-1β-implanted cornea (immunostaining); format: in vivo, mouse; settings: 0.3 mg/kg daily i.p.
Experimental: BALB/c mice were anesthetized by intrapcritoneal (i.p.) injection of pentobarbital sodium (60 mg/kg). Hydron pellets (0.3 μl) containing 30 ng mouse IL-1β (401-ML; R&D Systems) were prepared and implanted into the corneas. Pellets were positioned 1 mm from the corneal limbus. Implanted eyes were treated with Bacitracin ophthalmic ointment (E. Fougera & Co.) to prevent infection.
To block VAP-1, mice received daily i.p. injections of a specific VAP-1 inhibitor, Compound II (R-tech Ueno Ltd., Tokyo, Japan) as described above. A daily dose of 0.3 mg/kg was administered at day 0 and continued until the sixth day after implantation. Two, four and six days after implantation, digital images of the corneal vessels were obtained and recorded using OpenLab software version 2.2.5 (Improvision Inc.) with standardized illumination and contrast and were saved onto disks. The quantitative analysis of new vessel growth in the mouse corneas was performed using Scion Image software (version 4.0.2; Scion Corp.).
Mice were sacrificed under deep anesthesia with pentobarbital sodium (60 mg/kg i.p.). The eyes were harvested, snap-frozen in optimal cutting temperature (OCT) compound (Sakura Finetechnical) and 10 μm sections were prepared, air-dried and fixed in cold acetone for 10 min. The sections were blocked with nonfat dried-milk (M7409; Sigma) for 10 minutes and stained with anti-CD11b mAb (1:100, 550282; BD Pharmingen), anti-Gr-1 mAb (1:100, 550282; BD Pharmingen) or anti-F4/80 mAb (1:100, MCA497G; Scrotec). After an overnight incubation, sections were washed and stained for 20 min. with secondary Abs, FITC-conjugated goat anti-rat (1:100, AP136F; Chemicon International).

[2] = tested on: laser-induced CNV in Brown-Norway rats; experiment: Laser-induced CNV, fluorescein angiography leakage grading; format: in vivo, rat; settings: day 7 after laser injury, 0.3 mg/kg daily i.p., n=12
Experimental: (§1) Brown-Norway rats were anesthetized with 0.2-0.3 ml of a 50:50 mixture of 100 mg/ml Ketamine and 20 mg/ml Xylazine. Pupils were dilated with 5.0% Phenylephrine and 0.8% Tropicamide. CNV was induced with a 532 nm laser (Oculight GLx, Iridex, Mountain View, Calif.). Six laser spots (150 mW, 100 μm, 100 msec) were placed in each eye using a slit-lamp delivery system and a cover glass as a contact lens. Production of a bubble at the time of laser confirmed the rupture of the Bruch's membrane.
(§2) To block VAP-1, a specific VAP-1 inhibitor, Compound II described above, was used (R-tech Ueno, Ltd., Tokyo, Japan). After laser injury, the inhibitor (0.3 mg/kg BW) was administered to the animals by daily i.p. injections. As a control, some animals received the same regimen for the vehicle solution alone.
Seven days after laser injury, vascular leakage from the CNV lesions was assessed using fluorescein angiography (FA), as described previously (Zambarakji et al. (2001) IOVS 42: 1553-60). Briefly, FA was performed in anesthetized animals from VAP-1 inhibitor- or vehicle-treated groups, using a digital fundus camera (Model TRC 50 IA; Topcon, Paramus, N.J.). Fluorescein injections were performed intraperitoneally (0.2 ml of 2% fluorescein; Akorn, Decatur, Ill.).
The Grade-IIB lesions were defined as clinically significant, as described previously.

[3] = tested on: laser-induced CNV in Brown-Norway rats; experiment: Laser-induced CNV, lesion size in choroidal flatmounts; format: in vivo, rat; settings: 0.3 mg/kg BW daily i.p., mean±SEM
Experimental: as §1, §2
One week or two weeks after laser injury and treatment with VAP-1 inhibitor or vehicle, the size of CNV lesions was quantified using choroidal flat mounts. Briefly, rats were anesthetized and perfused through the left ventricle with 20 ml PBS followed by 20 ml of 5 mg/ml fluorescein labeled dextran (FITC-dextran; MW=2×106, SIGMA) in 1% gelatin. The eyes were enucleated and fixed in 4% paraformaldehyde for 3 hours. The anterior segment and retina were removed from the eyecup. […] The average size of the CNV lesions was then determined and used for the evaluation.

[4] = tested on: laser-induced CNV in Brown-Norway rats; experiment: Macrophage (ED-1 positive cell) infiltration in CNV lesions; format: in vivo, rat; settings: 3 days after laser injury; vs vehicle; n=4, p<0.05
Experimental: as §1, §2
At 1, 3, and 7 days after laser injury and treatment with either VAP-1 inhibitor or vehicle solution, animals were perfused with 200 ml of PBS/kg BW under deep anesthesia. […] The photographs of CNV lesions were taken, and the numbers of ED-1-positive cells were counted. To obtain a quantitative index of macrophage numbers in CNV lesions, an optical density plot of the selected area was generated by a histogram graphing tool in the Photoshop image analysis software (version 6.0; Adobe Systems, Mountain View, Calif.), as described in the literature (for example, Sakurai et al. (2003) IOVS 44: 3578-85). […]

CC(=O)Nc1nc(CCc2ccc(NC(=N)NN)cc2)c(Cc2ccc(S(C)(=O)=O)cc2)s1 [Compound II]
infiltration of CD11b(+) cells in cornea ([1]; 3 days after pellet implantation): effectively inhibited | number of F4/80(+) cells in cornea ([1]; IL-1β-implanted cornea): less than in vehicle-treated cornea or untreated cornea | number of Gr-1(+) cells in cornea ([1]; IL-1β-implanted cornea): less than in vehicle-treated cornea or untreated cornea | incidence of clinically significant CNV lesions graded as IIB [2]: 41.8% | CNV size ([3]; 7 days after laser injury, n=7): 14,536±2175 μm^2 | CNV size ([3]; fourteen days after laser injury, n=10 eyes, not significant vs vehicle (p=0.5)): 23,992±1437 μm^2 | reduction of number of accumulated macrophages (ED-1 positive cells) in CNV lesions [4]: 41%
